Test results: BindingDB's records for patent US20250171431 (Horizon Therapeutics Ireland Dac, 2025)
pIC50: −log10 of the molar value.

These molecules were tested against Insulin-like growth factor 1 receptor (Homo sapiens, UniProt P08069) (assay: Biologic and Pharmacologic Assay).
Description: The media was removed and replaced by 50 μL of 1× lysis buffer from the AlphaLISA kit (with 1× of cOmplete™ protease inhibitor). The plates were sealed, and cells were allowed to lyse for 10 min in the shaker before storing the plate at −20° C. until used. The AlphaLISA assay with processed cell lysates were performed as described in the protocol. Briefly, 10 μL of the undiluted sample were loaded to 384 well Optiplates and 5 μL of the acceptor mix (as described in the AlphaLISA kit) was added to each well. The plates were sealed and briefly vortexed followed by the incubation at RT for 3 hours. In the dark, 5 μL of donor mix was added to each well. All plates were sealed and stored at RT overnight. The plates were read in EnVision reader using standard AlphaLISA settings.Compound activity was analyzed using CBIS data analysis suite (ChemInnovation, CA).

Sequence of Insulin-like growth factor 1 receptor (P08069 31-736 limits assumed): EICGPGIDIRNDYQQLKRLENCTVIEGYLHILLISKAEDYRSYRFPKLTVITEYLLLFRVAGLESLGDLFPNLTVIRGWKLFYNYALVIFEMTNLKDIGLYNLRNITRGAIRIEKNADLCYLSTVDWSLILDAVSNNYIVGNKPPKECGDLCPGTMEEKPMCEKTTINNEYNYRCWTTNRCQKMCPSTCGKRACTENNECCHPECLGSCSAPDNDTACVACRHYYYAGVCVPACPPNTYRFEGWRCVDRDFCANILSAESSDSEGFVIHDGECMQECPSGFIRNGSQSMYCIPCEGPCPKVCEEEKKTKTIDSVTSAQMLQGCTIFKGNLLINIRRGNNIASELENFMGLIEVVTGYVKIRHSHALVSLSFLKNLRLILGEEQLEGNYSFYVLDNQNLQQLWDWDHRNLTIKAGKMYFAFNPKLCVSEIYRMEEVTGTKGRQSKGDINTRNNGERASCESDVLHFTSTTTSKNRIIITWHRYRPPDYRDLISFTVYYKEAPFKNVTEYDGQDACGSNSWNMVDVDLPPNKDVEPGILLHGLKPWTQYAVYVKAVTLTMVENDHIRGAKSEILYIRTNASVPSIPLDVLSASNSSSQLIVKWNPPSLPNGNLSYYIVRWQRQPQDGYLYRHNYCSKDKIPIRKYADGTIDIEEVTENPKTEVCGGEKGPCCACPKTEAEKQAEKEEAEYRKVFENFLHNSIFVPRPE
Sequence of Insulin-like growth factor 1 receptor (P08069 741-1367 limits assumed): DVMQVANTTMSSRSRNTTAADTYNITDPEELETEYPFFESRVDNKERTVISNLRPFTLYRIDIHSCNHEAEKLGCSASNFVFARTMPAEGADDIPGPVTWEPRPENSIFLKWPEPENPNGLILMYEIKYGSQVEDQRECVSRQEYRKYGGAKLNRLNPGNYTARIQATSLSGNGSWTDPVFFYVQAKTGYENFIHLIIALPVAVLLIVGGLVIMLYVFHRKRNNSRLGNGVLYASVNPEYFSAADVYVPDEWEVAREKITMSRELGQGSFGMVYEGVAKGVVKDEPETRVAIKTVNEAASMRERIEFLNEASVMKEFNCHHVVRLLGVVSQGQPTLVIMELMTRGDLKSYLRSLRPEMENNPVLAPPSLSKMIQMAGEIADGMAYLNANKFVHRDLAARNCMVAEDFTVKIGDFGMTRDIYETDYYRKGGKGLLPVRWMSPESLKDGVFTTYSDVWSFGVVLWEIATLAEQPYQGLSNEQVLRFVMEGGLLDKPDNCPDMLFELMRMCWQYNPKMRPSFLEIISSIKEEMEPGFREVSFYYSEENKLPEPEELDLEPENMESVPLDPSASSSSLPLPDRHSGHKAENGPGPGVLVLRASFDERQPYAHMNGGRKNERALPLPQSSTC

SMILES | pIC50
COc1cc(Nc2nccc(Nc3cnc4ccc(Cl)cc4c3)n2)cnc1N1CCNC(C(F)F)C1 (stereo not given) [US20250171431, Compound 483] | > 6.30
COc1cc(Nc2nccc(Nc3ccc4ncc(Cl)nc4c3)n2)ccc1O[C@H]1C[C@@H](N(C)C)C1 [US20250171431, Compound 134] | > 6.30
COc1cc(Nc2nccc(Nc3cnc4ccc(C#N)cc4c3)n2)ccc1OCCCN1CCCCC1 [US20250171431, Compound 392] | > 6.30
COc1cc(Nc2nccc(Nc3cnc4ccccc4c3)n2)ccc1N1CCC(N(C)C)CC1 [US20250171431, Compound 95] | > 6.30
COc1cc(Nc2nccc(Nc3cc4cc(Cl)ccc4[nH]c3=O)n2)ccc1O[C@H]1CC[C@@H](N(C)C)CC1 [US20250171431, Compound 247] | > 6.30
COc1cc(Nc2nccc(Nc3cnc4ccccc4c3)n2)ccc1N1CCC(N2CCCCC2)CC1 [US20250171431, Compound 1] | > 6.30
COc1cc(Nc2nccc(Nc3cc4cccc(F)c4[nH]c3=O)n2)cnc1N1CCC(N(C)C)CC1 [US20250171431, Compound 164] | > 6.30
COc1cc(Nc2nccc(Nc3cnc4cc(Cl)ccc4c3)n2)ccc1OCCCN1CCCCC1 [US20250171431, Compound 428] | > 6.30
COc1cc(Nc2nccc(Nc3cnc4c(c3)OC(C)(C)C(=O)N4)n2)ccc1O[C@H]1C[C@@H](N(C)C)C1 [US20250171431, Compound 288] | 5.70 to 6.30
COc1cc(Nc2nccc(Nc3cnc4cncc(F)c4c3)n2)cnc1O[C@H]1C[C@@H](N(C)C)C1 [US20250171431, Compound 88] | > 6.30
O=S1(=O)CCN([C@H]2CC[C@@H](Oc3ccc(Nc4nccc(Nc5cnc6ccc(Cl)cc6c5)n4)cc3)CC2)CC1 [US20250171431, Compound 309] | > 6.30
COc1cc(Nc2nccc(Nc3cc4ccccc4nc3C#N)n2)cnc1O[C@H]1C[C@@H](N(C)C)C1 [US20250171431, Compound 269] | < 5.00
COc1cc(N2CCN(C)CC2)ncc1Nc1nccc(Nc2cc3cccc(F)c3nc2O)n1 [US20250171431, Compound 91] | > 6.30
COc1cc(C2CCNCC2(F)F)ccc1Nc1nccc(Nc2cc3cccc(F)c3[nH]c2=O)n1 (stereo not given) [US20250171431, Compound 222] | > 6.30
COc1cc(Nc2nccc(Nc3ccc(C4CC4)nc3C(N)=O)n2)ccc1O[C@H]1C[C@@H](N(C)C)C1 [US20250171431, Compound 124] | > 6.30
COc1cc(Nc2nccc(Nc3cc(F)c4ncc(Br)cc4c3)n2)ccc1O[C@H]1C[C@@H](N(C)C)C1 [US20250171431, Compound 133] | > 6.30
COc1cc(Nc2nccc(Nc3cc4cccc(F)c4[nH]c3=O)n2)ccc1C1CCNCC1(F)F (stereo not given) [US20250171431, Compound 208] | > 6.30
COc1cc(Nc2nccc(Nc3cnc4c(Cl)cccc4c3)n2)ccc1O[C@H]1C[C@@H](N(C)C)C1 [US20250171431, Compound 344] | > 6.30
COc1cc(Nc2nccc(Nc3cc4c(F)cccc4[nH]c3=O)n2)ccc1O[C@H]1C[C@@H](N(C)C)C1 [US20250171431, Compound 123] | > 6.30
COc1cc(Nc2nccc(Nc3cc4cccc(F)c4nc3O)n2)cnc1O[C@@H]1C[C@H](N(C)C)C1(C)C [US20250171431, Compound 253] | < 5.00
